System: MCF-7 (human breast adenocarcinoma)
Assay: Cytotoxic activity, 2D, resazurin, 72 h
Assay type: cell-based
Conditions: for IC50: Homo sapiens, MCF7, 72 h, read-out: MCF-7 IC50; for SI HEK293/MCF-7: IC50 HEK293 / IC50 MCF-7

Structure (SMILES)	IC50	SI HEK293/MCF-7
CC(=O)C[Se]C(=O)c1ccc(Br)cc1 [K3]	2000 ± 500 nM	1.2 ± 0.3
CC(=O)C[Se]C(=O)c1ccccc1C(F)(F)F [K4]	1800 ± 100 nM	2.9 ± 0.3
CC(=O)C[Se]C(=O)c1ccc(C(C)(C)C)cc1 [K7]	1900 ± 100 nM	0.8 ± 0.1

From publication PMC9023544, “Ketone-selenoesters as potential anticancer and multidrug resistance modulation agents in 2D and 3D ovarian and breast cancer in vitro models” (Scientific Reports, 2022)
